# Data reported in PMC11678245, “The Molecular Basis of the Intrinsic and Acquired Resistance to Azole Antifungals in Aspergillus fumigatus” (Journal of Fungi, 2024).
# “And” between values parts separate entries of the source, which are not always exact repeats. Equal entries are not always repeated. Where two headings read alike, the source gives them in different places.
# Assays:
# [1] = tested on: S. cerevisiae strain ADLS overexpressing ScCYP51-6×His; experiment: MIC80 susceptibility, strain ADLS; format: cell-based, Saccharomyces cerevisiae; conditions: for MIC80: Saccharomyces cerevisiae, Table 2, strain ADLS, SD pH 6.8, 48 h, 30 °C, ± SD, read-out: MIC80
# Experimental: (§1) The susceptibilities of S. cerevisiae strains to antifungal drugs were determined as minimum growth inhibitory concentration (MIC) values in 200 μL SD pH 6.8 [24]. Serial 2-fold dilutions of 100 μL of azole or control drugs in SD pH 6.8 were prepared in a 96-well microtiter plate. A portion of a 2 mL SD pH 6.8 overnight culture of the test strain was inoculated into 3 mL fresh SD pH 6.8 and incubated for 4 to 6 h at 30 °C to generate logarithmic-phase cells. These cells were then diluted with fresh SD pH 6.8 to OD600nm = 0.01 (3 × 10^4 CFU), and 100 μL of this cell suspension was added to microtiter plate wells. Cell growth after 48 h incubation at 30 °C with shaking at 200 rpm was determined at 600 nm using a BioTek™ Synergy™ 2 multi-Mode microplate reader controlled using Gen5™ Data Analysis Software version 3.16.10 (BioTek Instruments, Winooski, VT, USA). MIC80 values (80% growth inhibition in the presence of the test drug compared with the untreated control) for each yeast construct were determined as technical triplicates repeated three times for three separate clones.
# [2] = tested on: S. cerevisiae strain A (AfCyp51A-6×His, native ScCyp51 retained); experiment: MIC80 susceptibility, strain A; format: cell-based; conditions: Saccharomyces cerevisiae, Table 2, SD pH 6.8, 48 h, 30 °C
# Experimental: as §1
# [3] = tested on: S. cerevisiae strain AR (AfCyp51A-6×His, AfCprA2-6×His); experiment: MIC80 susceptibility, strain AR; format: cell-based, Saccharomyces cerevisiae; conditions: Saccharomyces cerevisiae; Table 2; strain AR; SD pH 6.8, 48 h, 30 °C; ± SD; read-out: MIC80
# Experimental: as §1
# [4] = tested on: S. cerevisiae strain ARE (AfCyp51A-6×His, AfCprA2, AfErg6-FLAG); experiment: MIC80 susceptibility, strain ARE; format: cell-based, Saccharomyces cerevisiae
# Experimental: as §1
# [5] = tested on: S. cerevisiae strain ARE Y121F (AfCyp51A-6×His Y121F, AfCprA2, AfErg6-FLAG); experiment: MIC80 susceptibility, strain Y121F; format: cell-based, Saccharomyces cerevisiae; conditions: for MIC80: Saccharomyces cerevisiae, ± SD, read-out: MIC80
# Experimental: as §1
# [6] = tested on: S. cerevisiae strain ARE T289A (AfCyp51A-6×His T289A, AfCprA2, AfErg6-FLAG); experiment: MIC80 susceptibility, strain T289A; format: cell-based, Saccharomyces cerevisiae; conditions: for MIC80: ± SD
# Experimental: as §1
# [7] = tested on: S. cerevisiae strain ARE Y121F T289A (AfCyp51A-6×His Y121F T289A, AfCprA2, AfErg6-FLAG); experiment: MIC80 susceptibility, strain Y121F T289A; format: cell-based, Saccharomyces cerevisiae; conditions: for MIC80: Saccharomyces cerevisiae, ± SD, read-out: MIC80
# Experimental: as §1
# [8] = tested on: S. cerevisiae strain BR (AfCyp51B-6×His, AfCprA2-6×His); experiment: MIC80 susceptibility, strain BR; format: cell-based; conditions: Saccharomyces cerevisiae; Table 2; strain BR; SD pH 6.8, 48 h, 30 °C; ± SD; read-out: MIC80
# Experimental: as §1
# [9] = tested on: S. cerevisiae strain BRE (AfCyp51B-6×His, AfCprA2, AfErg6-FLAG); experiment: MIC80 susceptibility, strain BRE; format: cell-based, Saccharomyces cerevisiae; conditions: for MIC80: strain BRE, ± SD
# Experimental: as §1
# [10] = tested on: S. cerevisiae Y2300 ADΔΔ CYP51 (ScCYP51); experiment: MIC80 susceptibility, strain Y2300 (Table S1); format: cell-based, Saccharomyces cerevisiae; conditions: Saccharomyces cerevisiae
# Experimental: as §1, with “clones. […]” for “clones.”
# (§2) Table S1. Azole susceptibilities of ScCYP51 and ScCYP51 T322I expressed
# (§3) Data for each strain was obtained for […] in three biological replicates.
# [11] = tested on: S. cerevisiae Y2305 ADΔΔ CYP51 T322I (ScCYP51 T322I); experiment: MIC80 susceptibility, strain Y2305 (Table S1); format: cell-based, Saccharomyces cerevisiae; conditions: Saccharomyces cerevisiae, read-out: MIC80
# Experimental: as §1, with “clones. […]” for “clones.”
# as §2, §3
# [12] = Table 2, strain Y121F, SD pH 6.8, 48 h, 30 °C
# [13] = Saccharomyces cerevisiae, 48 h, pH 6.8, Table 2, strain T289A, SD pH 6.8, 48 h, 30 °C, read-out: MIC80
# [14] = Table 2, strain Y121F T289A, SD pH 6.8, 48 h, 30 °C
# [15] = Saccharomyces cerevisiae, Table 2, SD pH 6.8, 48 h, 30 °C, read-out: MIC80
smiles,measurement,setting,value
"C[C@@H](c1ncncc1F)[C@](O)(Cn1cncn1)c1ccc(F)cc1F [VCZ, voriconazole]",MIC80,[1],0.17 ± 0.03 µM
same,MIC80,[2],0.08 ± 0.01 µM
same,MIC80,[3],0.11 ± 0.02 µM
same,MIC80,"[4]; Saccharomyces cerevisiae, Table 2, strain ARE, SD pH 6.8, 48 h, 30 °C, ± SD, read-out: MIC80",0.27 ± 0.03 µM
same,MIC80 of strain ARE relative to strain ADΔΔ,[4]; higher,4- to 5 fold
same,increase in resistance (MIC80) of strain Y121F compared with strain ARE,[5],> 8 fold and 8 fold
same,MIC80,[5]; [12],2.07 ± 0.21 µM
same,greater susceptibility (MIC80) of strain T289A compared with strain ARE,[6],2.5 fold
same,MIC80,[6]; [13],< 0.12 µM
same,MIC80,"[6]; Table 2, strain T289A, SD pH 6.8, 48 h, 30 °C",0.11 ± 0.00 µM
same,increase in resistance (MIC80) of strain Y121F T289A compared with strain BRE,[7],4 fold
same,increase in resistance (MIC80) of strain Y121F T289A compared with strain T289A,[7],4 fold
same,MIC80,[7]; [14],2.86 ± 0.22 µM
same,MIC80,[8],0.07 ± 0.01 µM
same,MIC80,[9]; [15],0.21 ± 0.02 µM
same,MIC80 of strain BRE relative to strain ADΔΔ,[9]; higher,4- to 5 fold
same,MIC80,[10],0.71 ± 0.03 µM
same,MIC80,[11],0.8 ± 0.03 µM
"OC(Cn1cncn1)(Cn1cncn1)c1ccc(F)cc1F [FLC, fluconazole]",MIC80,[1],8 ± 0.2 µM
same,MIC80 of strain ADLS relative to strain ADΔΔ,[1]; higher,3 fold
same,MIC80,[2],3.8 ± 0.2 µM
same,MIC80,[3],6.5 ± 0.7 µM
same,MIC80,"[4]; Saccharomyces cerevisiae, 48 h, pH 6.8",227 ± 19 µM
same,MIC80,"[4]; Saccharomyces cerevisiae, Table 3, strain ARE, ± SD, read-out: MIC80",151 ± 66 µM
same,MIC80,"[4]; Table 2, strain ARE, SD pH 6.8, 48 h, 30 °C, ± SD",227 ± 18 µM and 227 ± 18.5 µM
same,MIC80,[5]; [12],263 ± 31.6 µM
same,MIC80,"[5]; Table 3, strain ARE Y121F",157 ± 33 µM
same,greater susceptibility (MIC80) of strain T289A compared with strain ARE,[6],11 fold
same,MIC80,[6]; [13],21.3 ± 2.7 µM
same,MIC80,"[6]; Saccharomyces cerevisiae, Table 3, strain ARE T289A, read-out: MIC80",12 ± 2 µM
same,MIC80 of strain T289A relative to strain ADΔΔ,[6]; higher,7 fold
same,increase in resistance (MIC80) of strain Y121F T289A compared with strain ARE,[7],5 fold
same,increase in resistance (MIC80) of strain Y121F T289A compared with strain BRE,[7],106 fold
same,increase in resistance (MIC80) of strain Y121F T289A compared with strain T289A,[7],53 fold
same,increase in resistance (MIC80) of strain Y121F T289A compared with strain Y121F,[7],4 fold
same,MIC80,[7]; [14],1060 ± 60 µM
same,MIC80,"[7]; Table 3, strain ARE Y121F T289A",725 ± 65 µM
same,MIC80,[8],2.9 ± 0.4 µM
same,MIC80,[9]; [15],10 ± 1.4 µM
same,MIC80,"[9]; Saccharomyces cerevisiae, Table 3, read-out: MIC80",3.8 ± 0.9 µM
same,MIC80,"[9]; Table 2, SD pH 6.8, 48 h, 30 °C",10.0 ± 1.4 µM
same,MIC80,[10],6.2 ± 0.3 µM
same,MIC80,[11],6.6 ± 0.2 µM
